{
  "source": "patent US7378397B2",
  "about": "(The Provost, Fellows and Scholars of the College of the …, priority 2000, dated 2008)",
  "key": {"TRH-DE": {"target": "T1, TRH-DE (Sus scrofa, UniProt A0A287AP33)", "T1 construct": "The inventor purified TRH-DE from porcine brain according to purification procedures previously published by Dr. K. Bauer; from tissue; host or cells: porcine brain (TRH-DE); bovine kidney (DPP-IV, gift from Dr. C. H. Williams)", "T1 sequence (A0A287AP33 1-1066)": "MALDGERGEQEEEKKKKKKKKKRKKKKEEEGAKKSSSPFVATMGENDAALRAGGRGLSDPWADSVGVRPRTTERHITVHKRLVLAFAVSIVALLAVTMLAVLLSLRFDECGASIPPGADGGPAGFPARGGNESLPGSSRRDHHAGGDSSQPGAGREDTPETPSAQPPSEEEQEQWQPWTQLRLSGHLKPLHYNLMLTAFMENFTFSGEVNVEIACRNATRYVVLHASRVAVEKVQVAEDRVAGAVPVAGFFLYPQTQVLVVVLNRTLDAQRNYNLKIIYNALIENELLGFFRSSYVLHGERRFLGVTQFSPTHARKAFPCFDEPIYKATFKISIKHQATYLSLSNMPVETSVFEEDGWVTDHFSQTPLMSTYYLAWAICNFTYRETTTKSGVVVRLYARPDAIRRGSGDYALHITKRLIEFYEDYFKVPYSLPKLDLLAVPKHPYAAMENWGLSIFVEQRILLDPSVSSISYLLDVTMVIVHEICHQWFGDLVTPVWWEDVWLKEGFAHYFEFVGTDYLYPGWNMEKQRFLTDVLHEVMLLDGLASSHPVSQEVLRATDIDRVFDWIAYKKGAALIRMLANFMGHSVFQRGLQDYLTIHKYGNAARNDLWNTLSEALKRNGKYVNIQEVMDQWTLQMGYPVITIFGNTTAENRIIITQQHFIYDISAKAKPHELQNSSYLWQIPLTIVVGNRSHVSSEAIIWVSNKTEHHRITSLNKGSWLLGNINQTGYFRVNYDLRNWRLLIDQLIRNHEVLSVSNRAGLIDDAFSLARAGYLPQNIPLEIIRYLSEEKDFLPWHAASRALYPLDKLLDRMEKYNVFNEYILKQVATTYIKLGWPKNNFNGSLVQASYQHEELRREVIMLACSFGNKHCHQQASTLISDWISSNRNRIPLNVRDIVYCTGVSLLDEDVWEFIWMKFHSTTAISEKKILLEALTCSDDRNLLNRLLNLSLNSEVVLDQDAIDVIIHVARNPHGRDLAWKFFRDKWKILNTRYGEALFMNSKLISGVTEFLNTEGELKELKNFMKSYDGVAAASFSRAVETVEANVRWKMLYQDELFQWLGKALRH", "test": "continuous coupled fluorometric TRH-DE assay (TRHAMC substrate, DPP-IV coupling enzyme)", "format": "biochemical, porcine", "conditions": "for Ki: non-linear regression, five TRHAMC concentrations and at least three peptide concentrations, mean±S.D. (n=3)", "description": "The inventor purified TRH-DE from porcine brain according to purification procedures previously published by Dr. K. Bauer, (Max-Planck-Institut, Hannover, Germany) (1). TRH-DE was purified almost 20,000 fold. […] Dipeptidyl peptidase IV (DPP-IV) (EC 3.4.14.5), purified from bovine kidney (7.7 mg ml^−1, specific activity of 17.5 U mg^−1 with Gly-ProAMC as substrate), was obtained as a gilt from Dr. C. H. Williams (Queen's University Belfast, U.K). (DPP-IV was used as the coupling enzyme used in the fluorometric assays).\nOne unit (U) of enzyme activity was defined as that amount catalysing the formation of one μmol of product in one minute under the standard conditions employed. All incubations in the assays described below were carried out in 20 mM potassium phosphate buffer, pH 7.5, at 37° C.\nKinetic analysis of peptides that are not hydrolysed by TRH-DE. A recently-developed continuous coupled fluorometric assay (23) was used to investigate the ability of those library peptides that were not hydrolysed by TRH-DE to inhibit TRHAMC degradation by TRH-DE. In this assay, TRHAMC is the substrate and dipeptidyl peptidase IV (DPP-IV) (EC 3.4.14.5) is the coupling enzyme. The reaction sequence is:\nThe reaction was monitored continuously by measuring the increase in AMC fluorescence. A linear progress curve with no discernible lag period was observed when the reaction was monitored over a period of 10 minutes. Nevertheless, data sampling was not commenced until 100 s from the start of the reaction to ensure measurements were taken after a steady state had been reached (see Ref. 23).\nIn a preliminary experiment, the peptides were screened for their ability to inhibit TRH-DE activity. The initial rate of TRHAMC hydrolysis by TRH-DE was measured by incubating 5 μM TRHAMC with 1.23 μg DPP-IV and 0.32 μg TRH-DE, both in the absence and presence of each library peptide (1 mM final concentration) under standard assay conditions (23). In each case the percentage inhibition (i%) was calculated using the equation i%=100(1-vi/vo), where vi and vo are the initial velocities in the presence and absence of peptide, respectively.\nSince these peptides were poor inhibitors they were not examined further. The Ki values for the remainder of the peptides were determined by measuring their effects on TRHAMC degradation by TRH-DE using the continuous assay. Data were collected in duplicate at five different substrate concentrations and at least three different concentrations of each peptide.\nReversibility and time dependence of the inhibition produced by Glp-Gln-ProNH2, Glp-Asn-ProNH2 and Glp-Asn-ProAMC were examined by initially preincubating TRH-DE with each peptide at 37° C. for various periods up to 75 min. To investigate time dependence, the enzyme-peptide solution was subsequently added to the reaction mixture containing TRHAMC, DPP-IV, buffer and peptide, and TRH-DE activity was measured using the continuous assay. The final concentration of Glp-Gln-ProNH2, Glp-Asn-ProNH2 and Glp-Asn-ProAMC used was 400, 160 and 1 μM, respectively. […] TRH-DE activity was not affected by pre-incubation at 37° C.\nFluorescence measurements were made using a Perkin Elmer LS 50B Luminescence Spectrometer fitted with a thernostated cell holder. Wavelengths for excitation and emission were set at 370 nm and 440 nm, respectively, with slit widths of 10 nm and 5 nm, respectively."}, "Male Wistar rats": {"tested_on": "Male Wistar rats", "test": "behavioural effects (activity score, WDS, locomotion) after i.p. administration", "format": "in vivo, rat", "description": "Methods: Behavioural studies were conducted using experimentally naïve Male Wistar rats (200-250 g) maintained in a temperature controlled (21° C.), artificially-lighted (12 hr light cycle) room with free access to food and water. Behavioural effects of TRH±TRH-DE inhibitor following intraperitoneal (i.p.) administration: On the day of the experiment, animals were singly housed in perspex cages (30×20×20 cm) and allowed to acclimatize for 20 min. After this period, two baseline measurements of behaviour were made at 10 and 5 min prior to administration of drugs. […] Animals were then observed by two independent observers who were blind to treatment, every 5 min for 30 sec. Blocks of 5 animals were treated at a time, 1 per drug group. Blocks were repeated 5 times. The occurrence of individual behaviours were noted using a behavioural check list, which included grooming, locomotion, rearing, chewing, sniffing, head weave, tail elevation, and/or straub tail and WDS behaviours. These behaviours were summed to yield an overall activity count. Animals were videotaped for separate subsequent analysis of WDS. All WDS behaviours occurring during each 5 min interval after drug administration were counted. The statistical significance of differences between behavioural effects of treatments was determined using the Student's t-test or ANOVA, followed by a post-ANOVA test, as indicated. Radioligand binding data were analysed using non-linear curve fitting software (Prism, Graph Pad Software Inc.). IC50 values calculated from competition experiments were converted to Ki values using the Cheng-Prusoff (41) equation Ki=IC50/(1+L/Kd), where L=ligand concentration and Kd=the apparent dissociation constant for [^3[…]."}, "[1]": {"target": "TRH receptors in rat cortical membranes", "test": "radioligand binding to ^3H-3MeHis-TRH-labelled receptors in rat cortex", "conditions": "competition with 6-8 nM ^3H-3MeHis-TRH, Cheng-Prusoff", "description": "Evaluation of the ability of TRH, Glp-Asn-ProNH2, and Glp-Asn-ProAMC to bind to ^3H-3MeHis-TRH-labelled receptors in rat cortex: Radioligand binding assays were conducted to investigate the possibility that the two TRH-DE inhibitors might exert their effects by acting independently at TRH receptors in the brain.\nCortex tissue from male Sprague-Dawley rats (250 g) was dissected out, weighed and homogenised in 30 volumes of ice-cold sodium phosphate buffer (0.02 M, pH 7.5). The homogenates were centrifuged at 30,000 g at 4° C. for 30 min. The supernatant was discarded and the pellet was resuspended at 100 mg wet wt/ml in buffer containing 177 μM bacitracin. […] Non-specific binding was defined in the presence of 10 μM TRH.\nThe statistical significance of differences between behavioural effects of treatments was determined using the Student's t-test or ANOVA, followed by a post-ANOVA test, as indicated. Radioligand binding data were analysed using non-linear curve fitting software (Prism, Graph Pad Software Inc.). IC50 values calculated from competition experiments were converted to Ki values using the Cheng-Prusoff (41) equation Ki=IC50/(1+L/Kd), where L=ligand concentration and Kd=the apparent dissociation constant for [^3H]-[3-MeHis]TRH."}},
  "note": "Where a SMILES comes first, the peptide text is derived from it. [ ]: non-standard residue; d: D form. pGlu = O=C1CC[C@@H](C(=O)O)N1",
  "data": [
    {"smiles": "NC(=O)C[C@H](NC(=O)[C@@H]1CCC(=O)N1)C(=O)N1CCC[C@H]1C(N)=O", "note": "[Glp-Asn-ProNH2, pyroglutamyl-asparaginyl-prolineamide] ([pGlu]-Asn-Pro-NH2)", "values": [
      {"measurement": "mode of inhibition of TRH-DE", "setting": "TRH-DE; continuous assay, Lineweaver-Burk plot", "result": "simple competitive inhibitors"},
      {"measurement": "Ki", "setting": "TRH-DE", "result": 17.5, "unit": "µM"},
      {"measurement": "Ki", "setting": "TRH-DE; listed as Glp-Asn-Pro-NH2", "result": 17.5, "unit": "µM"},
      {"measurement": "inhibition at 1000 µM", "setting": "TRH-DE; peptide 1 mM, 5 μM TRHAMC substrate", "result": 97, "unit": "%"},
      {"measurement": "reversibility and time dependence of inhibition", "setting": "TRH-DE; preincubation with TRH-DE up to 75 min at 37° C., Glp-Gln-ProNH2 400, Glp-Asn-ProNH2 160, Glp-Asn-ProAMC 1 μM", "result": "fully reversible and not time-dependent"},
      {"measurement": "increase in locomotion", "setting": "Male Wistar rats; i.p. administration, 10 mg/kg", "result": "not detected"},
      {"measurement": "rat activity scores compared with saline", "setting": "Male Wistar rats; i.p., 10 mg/kg each, 40 min post injection", "result": "significantly increased activity counts"},
      {"measurement": "pKi", "setting": "[1]", "result": "5.15±0.24"},
      {"measurement": "solubility", "setting": "physchem", "result": 1000, "unit": "µg/mL"}
    ]}
  ]
}
